Assay results published in US20020052295A1, “Diacyl derivatives of propylene diamine having herbicidal activity” (priority 1999, published 2002).

What was measured:
[1] = system: SOLNI; test: Post-emergence herbicidal activity on SOLNI (black nightshade); format: in vivo, Solanum nigrum; details: post-emergence spray; lowest tested rate with 80% or greater inhibition; about 14 days after treatment
Excerpt: (§1) All such uses, and the biological activity enabling such uses, are embraced by the term “herbicidal” herein. Tables 15 and 16 summarize results of tests conducted as described below to determine the pre-emergence herbicidal activity, in the form of a GR80 value, of illustrative compounds of this invention. […] Where herbicidal activity was evident but 80% inhibition was not achieved at the highest rate tested (typically 1000 g/ha), an asterisk (*) is shown in the following tables. Herbicidal activity evident in the form of symptoms of phytotoxicity, in the absence of at least 80% inhibition at any rate, is indicated in the tables by “phyto”. A blank cell in the following tables indicates no herbicidal or phytotoxic response at any rate tested.
(§2) In another set of tests, the post-emergence activity of compounds of this invention was evaluated on the cool season species listed above. The following procedure was used.
(§3) A pre-prepared topsoil mixture (described above) was placed in a pot and compacted to a depth of 1.0 to 1.25 cm from the top of the pot. Seeds of each of several monocotyledonous and dicotyledonous annual plant species were placed on top of the soil The seeds were covered with a mixture of 50% topsoil and 50% Rediearth™ in sufficient quantity to level-fill the pots. The pots were then placed on a greenhouse bench and subirrigated as needed until plants growing from the seeds had emerged and reached a suitable growth stage for post-emergence treatment, typically 9 to 14 days after planting.
(§4) A known amount of each test compound dissolved or suspended in an appropriate organic solvent was diluted with a 50:50 mix of acetone and water and applied to the plants by spraying with a standard spray nozzle in a spray volume of 3,100 l/ha at a spray pressure of […] (30 psig). Control plants were not sprayed.
(§5) After treatment the plants were placed in a greenhouse with a 30/21° C. day/night temperature regime and were subsequently watered as needed for growth. Approximately 14 days after treatment, the plants were observed and herbicidal efficacy recorded as percent inhibition by comparison with control plants.

[2] = system: AMARE; test: Post-emergence herbicidal activity on AMARE (redroot pigweed); format: in vivo, Amaranthus retroflexus; details: post-emergence spray; lowest tested rate with 80% or greater inhibition; about 14 days after treatment
Excerpt: as §1, §2, §3, §4, §5

[3] = system: CIRAR; test: Pre-emergence herbicidal activity on CIRAR (canada thistle, seedling); format: in vivo, Cirsium arvense; details: lowest tested rate giving 80% or greater inhibition, approx. 14 days after planting and treating, greenhouse
Outline: (§6)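 GR80 values come from percent inhibition relative to untreated plants, rated roughly 14 days after planting and treating, with rates up to typically 1000 g/ha. Compound was sprayed onto the soil over freshly covered seeds as a dilution in 50:50 acetone/water; pots kept in greenhouse at 30/21° C. day/night after 0.64 cm overhead watering.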

[4] = system: PANMI; test: Post-emergence herbicidal activity on PANMI (wild proso millet); format: in vivo, Panicum miliaceum; details: post-emergence spray; lowest tested rate with 80% or greater inhibition; about 14 days after treatment
[5] = system: SETFA; test: Pre-emergence herbicidal activity on SETFA (giant foxtail); format: in vivo, Setaria faberi; details: lowest tested rate giving 80% or greater inhibition, approx. 14 days after planting and treating, greenhouse
Outline: as §6

[6] = system: DIGSA; test: Pre-emergence herbicidal activity on DIGSA (large crabgrass); format: in vivo, Digitaria sanguinalis; details: lowest tested rate giving 80% or greater inhibition, approx. 14 days after planting and treating, greenhouse
Outline: as §6

[7] = system: SORVU; test: Post-emergence herbicidal activity on SORVU (shattercane); format: in vivo, Sorghum vulgare; details: post-emergence spray; lowest tested rate with 80% or greater inhibition; about 14 days after treatment
Excerpt: as §1, §2, §3, §4, §5

[8] = system: SOLNI; test: Pre-emergence herbicidal activity on SOLNI (black nightshade); format: in vivo, Solanum nigrum; details: lowest tested rate giving 80% or greater inhibition, approx. 14 days after planting and treating, greenhouse
Outline: as §6

[9] = system: ECHCG; test: Post-emergence herbicidal activity on ECHCG (barnyardgrass); format: in vivo, Echinochloa crus-galli; details: post-emergence spray; lowest tested rate with 80% or greater inhibition; about 14 days after treatment
Excerpt: as §1, §2, §3, §4, §5

[10] = system: SETFA; test: Post-emergence herbicidal activity on SETFA (giant foxtail); format: in vivo, Setaria faberi; details: post-emergence spray; lowest tested rate with 80% or greater inhibition; about 14 days after treatment
Excerpt: as §1, §2, §3, §4, §5

[11] = system: POROL; test: Post-emergence herbicidal activity on POROL (common purslane; table head prints PORAL); format: in vivo, Portulaca oleracea; details: post-emergence spray; lowest tested rate with 80% or greater inhibition; about 14 days after treatment
Excerpt: as §1, §2, §3, §4, §5

[12] = system: BRAPP; test: Pre-emergence herbicidal activity on BRAPP (broadleaf signalgrass); format: in vivo, Brachiaria platyphylla; details: lowest tested rate giving 80% or greater inhibition, approx. 14 days after planting and treating, greenhouse
Outline: as §6

[13] = system: CONAR; test: Post-emergence herbicidal activity on CONAR (field bindweed); format: in vivo, Convolvulus arvensis; details: post-emergence spray; lowest tested rate with 80% or greater inhibition; about 14 days after treatment
Excerpt: as §1, §2, §3, §4, §5

[14] = system: ABUTH; test: Post-emergence herbicidal activity on ABUTH (velvetleaf); format: in vivo, Abutilon theophrasti; details: post-emergence spray; lowest tested rate with 80% or greater inhibition; about 14 days after treatment
Excerpt: as §1, §2, §3, §4, §5

[15] = system: ECHCG; test: Pre-emergence herbicidal activity on ECHCG (barnyardgrass); format: in vivo, Echinochloa crus-galli; details: lowest tested rate giving 80% or greater inhibition, approx. 14 days after planting and treating, greenhouse
Outline: as §6

[16] = system: PANDI; test: Post-emergence herbicidal activity on PANDI (fall panicum); format: in vivo, Panicum dichotomiflorum; details: post-emergence spray; lowest tested rate with 80% or greater inhibition; about 14 days after treatment
Excerpt: as §1, §2, §3, §4, §5

[17] = system: BRAPP; test: Post-emergence herbicidal activity on BRAPP (broadleaf signalgrass); format: in vivo, Brachiaria platyphylla; details: post-emergence spray; lowest tested rate with 80% or greater inhibition; about 14 days after treatment
Excerpt: as §1, §2, §3, §4, §5

[18] = system: CHEAL; test: Post-emergence herbicidal activity on CHEAL (common lambsquarters); format: in vivo, Chenopodium album; details: post-emergence spray; lowest tested rate with 80% or greater inhibition; about 14 days after treatment
Excerpt: as §1, §2, §3, §4, §5

[19] = system: DATST; test: Post-emergence herbicidal activity on DATST (jimsonweed); format: in vivo, Datura stramonium; details: post-emergence spray; lowest tested rate with 80% or greater inhibition; about 14 days after treatment
Excerpt: as §1, §2, §3, §4, §5

[20] = system: DIGSA; test: Post-emergence herbicidal activity on DIGSA (large crabgrass); format: in vivo, Digitaria sanguinalis; details: post-emergence spray; lowest tested rate with 80% or greater inhibition; about 14 days after treatment
[21] = system: SORHA; test: Post-emergence herbicidal activity on SORHA (johnsongrass, seedling); format: in vivo, Sorghum halepense; details: post-emergence spray; lowest tested rate with 80% or greater inhibition; about 14 days after treatment
Excerpt: as §1, §2, §3, §4, §5

[22] = system: PANMI; test: Pre-emergence herbicidal activity on PANMI (wild proso millet); format: in vivo, Panicum miliaceum; details: lowest tested rate giving 80% or greater inhibition, approx. 14 days after planting and treating, greenhouse
Outline: as §6

[23] = system: SORVU; test: Pre-emergence herbicidal activity on SORVU (shattercane); format: in vivo, Sorghum vulgare; details: lowest tested rate giving 80% or greater inhibition, approx. 14 days after planting and treating, greenhouse
Outline: as §6

[24] = system: DATST; test: Pre-emergence herbicidal activity on DATST (jimsonweed); format: in vivo, Datura stramonium; details: lowest tested rate giving 80% or greater inhibition, approx. 14 days after planting and treating, greenhouse
Outline: as §6

[25] = system: CHEAL; test: Pre-emergence herbicidal activity on CHEAL (common lambsquarters); format: in vivo, Chenopodium album; details: lowest tested rate giving 80% or greater inhibition, approx. 14 days after planting and treating, greenhouse
Outline: as §6

[26] = system: POROL; test: Pre-emergence herbicidal activity on POROL (common purslane); format: in vivo, Portulaca oleracea; details: lowest tested rate giving 80% or greater inhibition, approx. 14 days after planting and treating, greenhouse
Outline: as §6

[27] = system: AMARE; test: Pre-emergence herbicidal activity on AMARE (redroot pigweed); format: in vivo, Amaranthus retroflexus; details: lowest tested rate giving 80% or greater inhibition, approx. 14 days after planting and treating, greenhouse
Outline: as §6

[28] = system: PANDI; test: Pre-emergence herbicidal activity on PANDI (fall panicum); format: in vivo, Panicum dichotomiflorum; details: lowest tested rate giving 80% or greater inhibition, approx. 14 days after planting and treating, greenhouse
Outline: as §6

[29] = system: ABUTH; test: Pre-emergence herbicidal activity on ABUTH (velvetleaf); format: in vivo, Abutilon theophrasti; details: lowest tested rate giving 80% or greater inhibition, approx. 14 days after planting and treating, greenhouse
Outline: as §6

[30] = system: SORHA; test: Pre-emergence herbicidal activity on SORHA (johnsongrass, seedling); format: in vivo, Sorghum halepense; details: lowest tested rate giving 80% or greater inhibition, approx. 14 days after planting and treating, greenhouse
Outline: as §6

[31] = system: CONAR; test: Pre-emergence herbicidal activity on CONAR (field bindweed); format: in vivo, Convolvulus arvensis; details: lowest tested rate giving 80% or greater inhibition, approx. 14 days after planting and treating, greenhouse
Outline: as §6

Structure (SMILES): C=C(C)CSc1ccccc1C(=O)NC(C)CNC(=O)c1cccc(C(F)(F)F)c1 (centres unmarked) [Example 124]
- Post-emergence activity (GR80) SOLNI [1]: phyto
- Post-emergence activity (GR80) AMARE [2]: phyto
- Pre-emergence activity (GR80) on CIRAR [3]: 1000 g/ha
- Post-emergence activity (GR80) PANMI [4]: [empty]
- Pre-emergence activity (GR80) on SETFA [5]: phyto
- Pre-emergence activity (GR80) on DIGSA [6]: 1000 g/ha
- Post-emergence activity (GR80) SORVU [7]: [empty]
- Pre-emergence activity (GR80) on SOLNI [8]: phyto
- Post-emergence activity (GR80) ECHCG [9]: [empty]
- Post-emergence activity (GR80) SETFA [10]: [empty]
- Post-emergence activity (GR80) PORAL [11]: phyto
- Pre-emergence activity (GR80) on BRAPP [12]: phyto
- Post-emergence activity (GR80) CONAR [13]: phyto
- Post-emergence activity (GR80) ABUTH [14]: phyto
- Pre-emergence activity (GR80) on ECHCG [15]: phyto
- Post-emergence activity (GR80) PANDI [16]: [empty]
- Post-emergence activity (GR80) BRAPP [17]: [empty]
- Post-emergence activity (GR80) CHEAL [18]: [empty]
- Post-emergence activity (GR80) DATST [19]: phyto
- Post-emergence activity (GR80) DIGSA [20]: [empty]
- Post-emergence activity (GR80) SORHA [21]: [empty]
- Pre-emergence activity (GR80) on PANMI [22]: phyto

Structure (SMILES): CCSc1ncccc1C(=O)NC(C)CNC(=O)c1cccc(C(F)(F)F)c1 (centres unmarked) [Example 243, 2-ethylthio-N-[1-methyl-2-(3-trifluoromethyl)phenylcarbonylamino]ethyl-3-pyridinecarboxamide]
- Post-emergence activity (GR80) SOLNI [1]: phyto
- Post-emergence activity (GR80) AMARE [2]: phyto
- Pre-emergence activity (GR80) on CIRAR [3]: 250 g/ha
- Post-emergence activity (GR80) PANMI [4]: [empty]
- Pre-emergence activity (GR80) on SETFA [5]: 500 g/ha
- Pre-emergence activity (GR80) on SORVU [23]: phyto
- Pre-emergence activity (GR80) on DATST [24]: 250 g/ha
- Pre-emergence activity (GR80) on CHEAL [25]: 250 g/ha
- Pre-emergence activity (GR80) on PORAL [26]: 250 g/ha
- Pre-emergence activity (GR80) on DIGSA [6]: 500 g/ha
- Post-emergence activity (GR80) SORVU [7]: [empty]
- Pre-emergence activity (GR80) on AMARE [27]: 750 g/ha
- Pre-emergence activity (GR80) on SOLNI [8]: 250 g/ha
- Post-emergence activity (GR80) ECHCG [9]: [empty]
- Post-emergence activity (GR80) SETFA [10]: [empty]
- Post-emergence activity (GR80) PORAL [11]: * (Where herbicidal activity was evident but 80% inhibition was not achieved at the highest rate tested (typically 1000 g/ha), an asterisk (*) is shown)
- Pre-emergence activity (GR80) on BRAPP [12]: 500 g/ha
- Post-emergence activity (GR80) CONAR [13]: * (Where herbicidal activity was evident but 80% inhibition was not achieved at the highest rate tested (typically 1000 g/ha), an asterisk (*) is shown)
- Post-emergence activity (GR80) ABUTH [14]: phyto
- Pre-emergence activity (GR80) on PANDI [28]: 500 g/ha
- Pre-emergence activity (GR80) on ABUTH [29]: 500 g/ha
- Pre-emergence activity (GR80) on ECHCG [15]: 1000 g/ha
- Post-emergence activity (GR80) PANDI [16]: [empty]
- Post-emergence activity (GR80) BRAPP [17]: [empty]
- Pre-emergence activity (GR80) on SORHA [30]: * (Where herbicidal activity was evident but 80% inhibition was not achieved at the highest rate tested (typically 1000 g/ha), an asterisk (*) is shown)
- Pre-emergence activity (GR80) on CONAR [31]: 250 g/ha
- Post-emergence activity (GR80) CHEAL [18]: phyto
- Post-emergence activity (GR80) DATST [19]: 750 g/ha
- Post-emergence activity (GR80) DIGSA [20]: [empty]
- Post-emergence activity (GR80) SORHA [21]: [empty]
- Pre-emergence activity (GR80) on PANMI [22]: 750 g/ha
